This experiment relates to A/Udorn/72 (H3N2) virus. The experiment is described as follows: Plaque assay in MDCK cells: EC50 by reduction of plaque number. It is filed as cell-based, influenza virus.

Like-named read-outs stand apart in the source and are kept apart here.

In general, EC50 refers to the concentration at which the effect is half-maximal.

Compound `COc1ccc2c(O)c(-c3ccc(-c4ccc(/C=C5\SC(=S)N(C6CC7CCC6C7)C5=O)o4)cc3)c(=O)oc2c1` (stereo not drawn) [Compound 227] had an EC50 (MDCK) below 100 nM.
The same measure, in the same setting: as for `O=C1/C(=C/c2[nH]c(-c3ccc(Cl)cc3)cc2CCCO)SC(=S)N1C1CC2CCC1C2` (stereo not drawn) [Compound 229], the figure is below 100 nM; as for `O=C1/C(=C/c2[nH]c(-c3ccc(Cl)cc3)cc2CCCCCO)SC(=S)N1C1CC2CCC1C2` (stereo not drawn) [Compound 230], below 100 nM.
The same measure, in the same setting: as for `CC(=O)OCCCc1cc(-c2ccc(Cl)cc2)[nH]c1/C=C1\SC(=S)N(C2CC3CCC2C3)C1=O` (stereo not drawn) [Compound 231], the figure is below 100 nM; as for `COc1cccc(-c2cc(CCCO)c(/C=C3\SC(=S)N(C4CC5CCC4C5)C3=O)[nH]2)c1` (stereo not drawn) [Compound 232], below 100 nM.
On to `COc1cccc(-c2cc(CCCO)c(/C=C3\SC(=S)N(C4C5CC6CC(C5)CC4C6)C3=O)[nH]2)c1` (stereo not drawn) [Compound 233], for which the EC50 is below 100 nM.
As for `O=C1/C(=C/c2[nH]c(-c3ccc(Cl)cc3)cc2CCCO)SC(=S)N1C1C2CC3CC(C2)CC1C3` (stereo not drawn) [Compound 234], the EC50 (MDCK) is below 100 nM.
Still for that read-out and setting: as for `COc1cccc(-c2cc(CCCCCO)c(/C=C3\SC(=S)N(C4CC5CCC4C5)C3=O)[nH]2)c1` (stereo not drawn) [Compound 235], the figure is below 100 nM; as for `O=C1/C(=C/c2[nH]c(-c3ccc(Cl)cc3)cc2CCCCCO)SC(=S)N1C1C2CC3CC(C2)CC1C3` (stereo not drawn) [Compound 236], below 100 nM; as for `COc1cccc(-c2cc(CCCCCO)c(/C=C3\SC(=S)N(C4C5CC6CC(C5)CC4C6)C3=O)[nH]2)c1` (stereo not drawn) [Compound 237], below 100 nM.
In the case of `COc1cccc(-c2cc(CCCO)c(/C=C3\SC(=S)N(C4C5CC6CC(C5)CC4C6)C3=O)[nH]2)c1` (stereo not drawn) [Compound 238], the EC50 was 250 to 1000 nM.
`CC(C)(C)N1C(=O)C[C@@H](C(=O)OCCCCCc2cc(-c3ccc(Cl)cc3)[nH]c2/C=C2\SC(=S)N(C3C4CC5CC(C4)CC3C5)C2=O)NC1=O` (stereo partly drawn) [Compound 251] gave an EC50 (MDCK) below 100 nM.
Same read-out and setting: as for `CC(C)(C)N1C(=O)C[C@@H](C(=O)OCCCc2cc(-c3ccc(Cl)cc3)[nH]c2/C=C2\SC(=S)N(C3C4CC5CC(C4)CC3C5)C2=O)NC1=O` (stereo partly drawn) [Compound 252], the figure is below 100 nM; as for `CC(C)(C)OC(=O)N[C@@H](CC(N)=O)C(=O)OCCCc1cc(-c2ccc(Cl)cc2)[nH]c1/C=C1\SC(=S)N(C2C3CC4CC(C3)CC2C4)C1=O` (stereo partly drawn) [Compound 253], below 100 nM.
With `CC(C)(C)OC(=O)N[C@@H](CC(N)=O)C(=O)OCCCCCc1cc(-c2ccc(Cl)cc2)[nH]c1/C=C1\SC(=S)N(C2C3CC4CC(C3)CC2C4)C1=O` (stereo partly drawn) [Compound 254], the concentration for a half-maximal effect (EC50) (MDCK) was below 100 nM.
Still for that read-out and setting: as for `CC(C)(C)OC(=O)N[C@@H](CC(N)=O)C(=O)N1CCN(CCCCCc2cc(-c3ccc(Cl)cc3)[nH]c2/C=C2\SC(=S)N(C3CC4CCC3C4)C2=O)CC1` (stereo partly drawn) [Compound 255], the figure is below 100 nM; as for `O=C1/C(=C/c2cc(CCCO)c(-c3ccc(Cl)cc3)n2Cc2ccccc2)SC(=S)N1C1CC2CCC1C2` (stereo not drawn) [Compound 256], below 100 nM; as for `O=C1/C(=C/c2cc(CCCO)c(-c3ccc(Cl)cc3)n2Cc2ccccc2)SC(=S)N1C1C2CC3CC(C2)CC1C3` (stereo not drawn) [Compound 257], below 100 nM.
Same read-out and setting: as for `Cn1c(-c2ccc(Cl)cc2)cc(CCCO)c1/C=C1\SC(=S)N(C2CC3CCC2C3)C1=O` (stereo not drawn) [Compound 258], the figure is above 1000 nM.
Same read-out and setting: as for `Cn1c(-c2ccc(Cl)cc2)cc(CCCO)c1/C=C1\SC(=S)N(C2C3CC4CC(C3)CC2C4)C1=O` (stereo not drawn) [Compound 259], the figure is above 1000 nM; as for `Cn1c(-c2ccc(Cl)cc2)cc(CCCCCO)c1/C=C1\SC(=S)N(C2CC3CCC2C3)C1=O` (stereo not drawn) [Compound 260], below 100 nM.
Take `Cn1c(-c2ccc(Cl)cc2)cc(CCCCCO)c1/C=C1\SC(=S)N(C2C3CC4CC(C3)CC2C4)C1=O` (stereo not drawn) [Compound 261]: the EC50 (MDCK) is below 100 nM.
In turn, `COc1cccc(-c2cc(CCCCCO)c(/C=C3\SC(=S)N(C4CC5CCC4C5)C3=O)n2C)c1` (stereo not drawn) [Compound 262] returned an EC50 (MDCK) above 1000 nM.
The same measure, in the same setting: as for `COc1cccc(-c2cc(CCCCCO)c(/C=C3\SC(=S)N(C4C5CC6CC(C5)CC4C6)C3=O)n2C)c1` (stereo not drawn) [Compound 263], the figure is 250 to 1000 nM; as for `COc1cccc(-c2cc(CCCO)c(/C=C3\SC(=S)N(C4CC5CCC4C5)C3=O)n2C)c1` (stereo not drawn) [Compound 264], 250 to 1000 nM; as for `Cn1c(/C=C2\SC(=S)N(C3CC4CCC3C4)C2=O)cc(C#CCCCO)c1-c1ccc(Cl)cc1` (stereo not drawn) [Compound 265], below 100 nM.
Still for that read-out and setting: as for `COc1cccc(-c2c(C#CCCCO)cc(/C=C3\SC(=S)N(C4CC5CCC4C5)C3=O)n2C)c1` (stereo not drawn) [Compound 266], the figure is below 100 nM; as for `COc1cccc(-c2c(C#CCCCOC(=O)[C@H](CC(N)=O)NC(=O)OC(C)(C)C)cc(/C=C3\SC(=S)N(C4C5CC6CC(C5)CC4C6)C3=O)n2C)c1` (stereo partly drawn) [Compound 270], below 100 nM; as for `COc1cccc(-c2c(C#CCCCOC(=O)[C@H](CC(N)=O)NC(=O)OC(C)(C)C)cc(/C=C3\SC(=S)N(C4CC5CCC4C5)C3=O)n2C)c1` (stereo partly drawn) [Compound 271], below 100 nM.
On the same count and under the same terms, as for `Cn1c(/C=C2\SC(=S)N(C3CC4CCC3C4)C2=O)cc(C#CCCCOC(=O)[C@H](CC(N)=O)NC(=O)OC(C)(C)C)c1-c1ccc(Cl)cc1` (stereo partly drawn) [Compound 272], the figure is below 100 nM; as for `Cn1c(/C=C2\SC(=S)N(C3CC4CCC3C4)C2=O)cc(C#CCCCOC(=O)[C@@H]2CC(=O)N(C(C)(C)C)C(=O)N2)c1-c1ccc(Cl)cc1` (stereo partly drawn) [Compound 273], 100 to 250 nM.
Regarding `O=C1/C(=C/c2sc(-c3ccc(Cl)cc3)cc2-c2ccc(Cl)cc2)SC(=S)N1C1CC2CCC1C2` (stereo not drawn) [Compound 274], the EC50 (MDCK) was below 100 nM.
Same read-out and setting: as for `O=C1/C(=C/c2sc(-c3ccc(Cl)cc3)cc2-c2ccc(Cl)cc2)SC(=S)N1C1C2CC3CC(C2)CC1C3` (stereo not drawn) [Compound 275], the figure is below 100 nM.
On to `O=C1/C(=C/c2sc(-c3ccc(Cl)cc3)cc2CCCO)SC(=S)N1C1CC2CCC1C2` (stereo not drawn) [Compound 276], for which the EC50 (MDCK) is below 100 nM.
Take `O=C1/C(=C/c2sc(-c3cccc(Cl)c3)cc2CCCCCO)SC(=S)N1C1CC2CCC1C2` (stereo not drawn) [Compound 277]: the EC50 (MDCK) is below 100 nM.
`O=C1/C(=C/c2sc(-c3ccc(Cl)cc3)cc2CCCCCO)SC(=S)N1C1CC2CCC1C2` (stereo not drawn) [Compound 278]: under “MDCK”, the EC50 is below 100 nM.
In turn, `COc1cccc(-c2cc(CCCCCO)c(/C=C3\SC(=S)N(C4C5CC6CC(C5)CC4C6)C3=O)s2)c1` (stereo not drawn) [Compound 279] showed an EC50 (MDCK) below 100 nM.
Same read-out and setting: as for `COc1cccc(-c2cc(CCCCCO)c(/C=C3\SC(=S)N(C4CC5CCC4C5)C3=O)s2)c1` (stereo not drawn) [Compound 280], the figure is below 100 nM; as for `O=C1/C(=C/c2sc(-c3ccc(Cl)cc3)cc2CCCCCO)SC(=S)N1C1C2CC3CC(C2)CC1C3` (stereo not drawn) [Compound 281], below 100 nM.
Regarding `COc1cccc(-c2cc(CCCO)c(/C=C3\SC(=S)N(C4C5CC6CC(C5)CC4C6)C3=O)s2)c1` (stereo not drawn) [Compound 282], the EC50 (MDCK) is below 100 nM.
The same measure, in the same setting: as for `O=C1/C(=C/c2cc(CCCCCO)c(-c3ccc(Cl)cc3)s2)SC(=S)N1C1C2CC3CC(C2)CC1C3` (stereo not drawn) [Compound 283], the figure is below 100 nM.
Same read-out and setting: as for `O=C1/C(=C/c2cc(CCCCCO)c(-c3ccc(Cl)cc3)s2)SC(=S)N1C1CC2CCC1C2` (stereo not drawn) [Compound 284], the figure is below 100 nM; as for `O=C1/C(=C/c2sc(-c3cccc(Cl)c3)cc2C#CCCCO)SC(=S)N1C1C2CC3CC(C2)CC1C3` (stereo not drawn) [Compound 285], below 100 nM; as for `O=C1/C(=C/c2sc(-c3cccc(Cl)c3)cc2C#CCCCO)SC(=S)N1C1CC2CCC1C2` (stereo not drawn) [Compound 286], below 100 nM.
Same read-out and setting: as for `O=C1/C(=C/c2cc(C#CCCCO)c(-c3ccc(Cl)cc3)s2)SC(=S)N1C1C2CC3CC(C2)CC1C3` (stereo not drawn) [Compound 287], the figure is below 100 nM; as for `O=C1/C(=C/c2cc(C#CCCCO)c(-c3ccc(Cl)cc3)s2)SC(=S)N1C1CC2CCC1C2` (stereo not drawn) [Compound 288], below 100 nM.
Compound `COc1cccc(-c2sc(/C=C3\SC(=S)N(C4C5CC6CC(C5)CC4C6)C3=O)cc2C#CCCCO)c1` (stereo not drawn) [Compound 289] showed an EC50 (MDCK) below 100 nM.
Still for that read-out and setting: as for `O=C1/C(=C/c2sc(-c3ccc(Cl)cc3)cc2C#CCCCO)SC(=S)N1C1C2CC3CC(C2)CC1C3` (stereo not drawn) [Compound 290], the figure is below 100 nM; as for `O=C1/C(=C/c2sc(-c3ccc(Cl)cc3)cc2C#CCCCO)SC(=S)N1C1CC2CCC1C2` (stereo not drawn) [Compound 291], below 100 nM; as for `COc1cccc(-c2cc(C#CCCCO)c(/C=C3\SC(=S)N(C4CC5CCC4C5)C3=O)s2)c1` (stereo not drawn) [Compound 292], below 100 nM.
On the same count and under the same terms, as for `CC(C)(C)OC(=O)N[C@@H](CC(N)=O)C(=O)OCCCCCc1cc(-c2ccc(Cl)cc2)sc1/C=C1\SC(=S)N(C2C3CC4CC(C3)CC2C4)C1=O` (stereo partly drawn) [Compound 308], the figure is below 100 nM; as for `CC(C)(C)N1C(=O)C[C@@H](C(=O)OCCCCCc2cc(-c3cccc(Cl)c3)sc2/C=C2\SC(=S)N(C3C4CC5CC(C4)CC3C5)C2=O)NC1=O` (stereo partly drawn) [Compound 309], below 100 nM; as for `COc1cccc(-c2cc(CCCCCOC(=O)[C@H](CC(N)=O)NC(=O)OC(C)(C)C)c(/C=C3\SC(=S)N(C4C5CC6CC(C5)CC4C6)C3=O)s2)c1` (stereo partly drawn) [Compound 310], below 100 nM.
The same measure, in the same setting: as for `CC(C)(C)OC(=O)N[C@@H](CC(N)=O)C(=O)OCCCC#Cc1cc(-c2cccc(Cl)c2)sc1/C=C1\SC(=S)N(C2CC3CCC2C3)C1=O` (stereo partly drawn) [Compound 311], the figure is below 100 nM; as for `CC(C)(C)OC(=O)N[C@@H](CC(N)=O)C(=O)OCCCC#Cc1cc(-c2cccc(Cl)c2)sc1/C=C1\SC(=S)N(C2C3CC4CC(C3)CC2C4)C1=O` (stereo partly drawn) [Compound 312], below 100 nM; as for `COc1cccc(-c2cc(CCCCCOC(=O)[C@H](CC(N)=O)NC(=O)OC(C)(C)C)c(/C=C3\SC(=S)N(C4CC5CCC4C5)C3=O)s2)c1` (stereo partly drawn) [Compound 313], below 100 nM.
For `COc1cccc(-c2cc(C#CCCCOC(=O)[C@H](CC(N)=O)NC(=O)OC(C)(C)C)c(/C=C3\SC(=S)N(C4CC5CCC4C5)C3=O)s2)c1` (stereo partly drawn) [Compound 314], where the note is “MDCK”, the EC50 was below 100 nM.
Still for that read-out and setting: as for `COc1cc(COc2ccc3oc(=O)c(-c4ccc(/C=C5\SC(=S)N(C6CC7CCC6C7)C5=O)s4)c(O)c3c2)cc(OC)c1` (stereo not drawn) [Compound 315], the figure is below 100 nM.
On the same count and under the same terms, as for `O=C1/C(=C/c2ccc(-c3ccc(Cl)cc3)s2)SC(=S)N1C1CC2CCC1C2` (stereo not drawn) [Compound 316], the figure is below 100 nM; as for `O=C1/C(=C/c2ccc(-c3ccc(Cl)cc3)s2)SC(=S)N1C1C2CC3CC(C2)CC1C3` (stereo not drawn) [Compound 317], below 100 nM.
